According to US9023789B2, “Amylin analogs and pharmaceutical compositions thereof” (Novo Nordisk A/S, priority 2012, dated 2015):
Values after ≈ are worked out from the molar mass of the structure shown. Where two headings read alike, the source gives them in different places. Numbered stars: 1 amine (or outer) side, 2 acyl side, 3 side chain; on linkers, the order of the positions; unused ones are H or OH. Bridge positions count the residues as written; N and C are the ends. Side chains are listed from the residue outwards. Peptide text beside a SMILES is read from it. * marks the point of attachment. C20 diacid = O=C(O)CCCCCCCCCCCCCCCCCCC(=O)*; γGlu = O=C(O)[C@H](CCC(=O)[*:2])N[*:1]; AEEA = NCCOCCOCC(=O)O

How the values were obtained:
[1] = target: T1, human amylin receptor (membranes from Amylin 3(a)/CRE-luc cells) (Homo sapiens, UniProt O60896+P30988); assay: ASSAY (V) binding to the human amylin receptor (SPA, 125I-rat amylin); details: for IC50: Table 4, read-out: hAmylin-R bind IC50;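 as to all read-outs here: competition binding of cell membranes (35 ng/µL) mixed with SPA beads in 384-well plates at 40 µL total volume, read by scintillation counting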
T1 construct: expressed in transfected cells
T1 sequence (P30988 25-474): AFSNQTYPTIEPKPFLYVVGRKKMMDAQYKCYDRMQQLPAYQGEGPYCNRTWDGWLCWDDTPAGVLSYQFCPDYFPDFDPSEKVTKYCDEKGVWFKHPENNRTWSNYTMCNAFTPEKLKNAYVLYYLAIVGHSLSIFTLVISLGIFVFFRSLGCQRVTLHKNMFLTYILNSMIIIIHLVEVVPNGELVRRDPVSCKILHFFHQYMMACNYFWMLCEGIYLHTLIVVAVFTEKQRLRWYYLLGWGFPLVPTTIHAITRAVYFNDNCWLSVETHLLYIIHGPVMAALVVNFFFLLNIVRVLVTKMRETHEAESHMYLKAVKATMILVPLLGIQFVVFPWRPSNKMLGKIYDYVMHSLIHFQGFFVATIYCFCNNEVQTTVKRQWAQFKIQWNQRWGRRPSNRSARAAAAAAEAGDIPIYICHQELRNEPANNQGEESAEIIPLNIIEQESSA
T1 sequence (O60896 24-148 partner): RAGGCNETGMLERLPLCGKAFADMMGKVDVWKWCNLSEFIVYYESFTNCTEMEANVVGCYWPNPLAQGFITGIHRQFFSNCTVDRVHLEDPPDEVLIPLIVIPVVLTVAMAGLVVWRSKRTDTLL

[2] = target: T2, rat amylin receptor (rat calcitonin receptor + rat RAMP 3) (Rattus norvegicus, UniProt P32214+Q9JJ73); assay: ASSAY (VI) binding to the rat amylin receptor; details: for IC50: binding to rat amylin receptor, read-out: rAmylin-R bind IC50
T2 construct: expressed in transfected cells; host or cells: BHK tk'ts 13 (transient, FuGENE 6), membranes
T2 sequence (P32214 25-479 isoform P32214-2 limits assumed): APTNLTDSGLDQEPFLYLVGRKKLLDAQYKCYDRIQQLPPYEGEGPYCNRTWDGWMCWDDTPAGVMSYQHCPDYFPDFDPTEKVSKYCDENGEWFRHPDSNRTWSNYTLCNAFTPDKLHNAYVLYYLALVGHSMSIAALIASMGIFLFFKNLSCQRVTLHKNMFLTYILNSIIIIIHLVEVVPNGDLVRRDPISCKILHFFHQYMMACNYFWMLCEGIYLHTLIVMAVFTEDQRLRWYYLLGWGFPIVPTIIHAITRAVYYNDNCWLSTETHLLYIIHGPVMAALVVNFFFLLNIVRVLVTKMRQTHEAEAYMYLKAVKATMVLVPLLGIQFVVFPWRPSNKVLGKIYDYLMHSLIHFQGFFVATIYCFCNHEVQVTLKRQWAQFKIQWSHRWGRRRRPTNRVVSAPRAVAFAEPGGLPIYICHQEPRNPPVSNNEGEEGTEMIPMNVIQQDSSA
T2 sequence (Q9JJ73 23-147 partner): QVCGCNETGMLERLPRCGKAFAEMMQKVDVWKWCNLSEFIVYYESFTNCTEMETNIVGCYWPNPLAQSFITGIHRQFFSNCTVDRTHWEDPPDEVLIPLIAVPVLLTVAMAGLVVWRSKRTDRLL
In short: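 This assay measured binding to the rat amylin receptor. BHK tk′ts 13 cells were transiently transfected with the rat calcitonin receptor using FuGENE® 6 (Roche), following the manufacturer's recommendations. About 48 hours after transfection, the cells were harvested and membranes were prepared from them for the binding determination.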

[3] = ASSAY (IV) determination of solubility; format: physicochemical
In short: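 Dissolve polypeptide in water ([…] stock); combine 1:1 with each 100 mM buffer (glycylglycine pH 3.0/4.0/5.0; bistrispropane pH 6.0/6.5/7.0/7.5/8.0); hold 18 hours at room temperature; centrifuge; quantify polypeptide by UPLC.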

[4] = target: T3, rat calcitonin receptor (Rattus norvegicus, UniProt P32214); assay: ASSAY (VIII) binding to the rat calcitonin receptor; details: Table 7, read-out: rCTR bind IC50
T3 construct: expressed in transfected cells; host or cells: BHK tk'ts 13 (transient, FuGENE 6), membranes
T3 sequence (P32214 25-479 isoform P32214-2 limits assumed): T2 sequence (P32214 25-479 isoform P32214-2 limits assumed)
In short: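 Rat calcitonin receptor is expressed transiently in BHK tk′ts 13 cells cultured in DMEM with 10% FBS. Roughly two days (approximately 48 hours) post-transfection, cells are harvested for membrane preparation.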

[5] = Table 5, selectivity, hCTR bind IC50 / hAmylin-R bind IC50
[6] = Table 5a, selectivity, hCTR bind IC50 / hAmylin-R bind IC50
[7] = Table 5b, selectivity, hCTR bind IC50 / hAmylin-R bind IC50
[8] = Table 5c, selectivity, hCTR bind IC50 / hAmylin-R bind IC50
[9] = Table 7, human binding selectivity, included for comparison
[10] = Table 7a (preferred compounds), human binding selectivity, included for comparison
[11] = ratio of human calcitonin receptor binding IC50 to human amylin receptor binding IC50
[12] = Table 7, rat binding selectivity, rCTR IC50 / rAmylin-R IC50
[13] = Table 7a (preferred compounds), rat binding selectivity, rCTR IC50 / rAmylin-R IC50
[14] = ratio of rCTR bind IC50 to rAmylin-R bind IC50
[15] = bistrispropane buffer, pH 6.5, read-out: Solubility pH 6.5 Concentration
[16] = bistrispropane buffer, pH 7.5, read-out: Solubility pH 7.5 Concentration
[17] = bistrispropane buffer, pH 6.0, read-out: Solubility pH 6.0 Concentration
[18] = bistrispropane buffer, pH 7.0, read-out: Solubility pH 7.0 Concentration
[19] = bistrispropane buffer, pH 8.0, read-out: Solubility pH 8.0 Concentration
[20] = glycylglycine buffer, pH 3.0, read-out: Solubility pH 3.0 Concentration
[21] = glycylglycine buffer, pH 4.0, read-out: Solubility pH 4.0 Concentration
[22] = glycylglycine buffer, pH 5.0, read-out: Solubility pH 5.0 Concentration

Compound	Ratio hCT/hAmylin binding [1, 5]	Ratio hCT/hAmylin binding [1, 6]	Ratio hCT/hAmylin binding [1, 7]	Ratio hCT/hAmylin binding [1, 8]	Ratio hCT/hAmylin binding [1, 9]	Ratio hCT/hAmylin binding [1, 10]	Ratio hCT/hAmylin binding [1, 11]	IC50 ([2]; Table 7) [nM]	Ratio rCT/rAmylin binding [2, 12]	Ratio rCT/rAmylin binding [2, 13]	Ratio rCT/rAmylin binding [2, 14]	solubility at 18 h [3, 15] [µM]	solubility at 18 h [3, 16] [µM]	solubility at 18 h [3, 17] [µM]	solubility at 18 h [3, 18] [µM]	solubility at 18 h [3, 19] [µM]	solubility at 18 h [3, 20] [µM]	solubility at 18 h [3, 21] [µM]	solubility at 18 h [3, 22] [µM]	IC50 [4] [nM]	also measured
CC[C@H](C)[C@H](NC(=O)[C@H](C)NC(=O)CNC(=O)[C@H](Cc1ccccc1)NC(=O)[C@H](CC(N)=O)NC(=O)[C@@H]1CCCN1C(=O)[C@H](CO)NC(=O)[C@H](CO)NC(=O)[C@H](Cc1c[nH]cn1)NC(=O)[C@H](CCCNC(=N)N)NC(=O)[C@H](CC(C)C)NC(=O)[C@H](Cc1ccccc1)NC(=O)[C@H](CC(N)=O)NC(=O)[C@H](C)NC(=O)[C@H](CC(C)C)NC(=O)[C@H](CCCNC(=N)N)NC(=O)[C@H](CCC(N)=O)NC(=O)[C@@H](NC(=O)[C@H](C)NC(=O)[C@@H]1CSSC[C@H](NC(=O)[C@@H](N)CCCCNC(=O)COCCOCCNC(=O)CC[C@H](NC(=O)CCCCCCCCCCCCCCCCCCC(=O)O)C(=O)O)C(=O)N[C@@H](CC(N)=O)C(=O)N[C@@H]([C@@H](C)O)C(=O)N[C@@H](C)C(=O)N[C@@H]([C@@H](C)O)C(=O)N1)[C@@H](C)O)C(=O)N1CCC[C@H]1C(=O)N1CCC[C@H]1C(=O)N[C@@H](CO)C(=O)N[C@H](C(=O)N1CCC[C@H]1C(=O)N[C@H](C(=O)NCC(=O)N[C@@H](CO)C(=O)N[C@@H](CC(N)=O)C(=O)N[C@H](C(=O)N[C@@H](Cc1ccc(O)cc1)C(N)=O)[C@@H](C)O)C(C)C)[C@@H](C)O [Example 53] (H-K([AEEA-γGlu-C20 diacid])CNTATCATQRLANFLRHSSPNFGAIPPSTPVGSNTY-NH2; disulfide 2-7; N-terminus assumed)	103.5	103.5	103.5	103.5	103.5	103.5	103.5	0.084	130.1	130.1	130.1	≥ 200	≥ 200	≥ 200	≥ 200	≥ 200	≥ 200	≥ 200	≥ 200	10.9	
CC[C@H](C)[C@H](NC(=O)[C@H](C)NC(=O)CNC(=O)[C@H](Cc1ccccc1)NC(=O)[C@H](CC(N)=O)NC(=O)[C@@H]1CCCN1C(=O)[C@H](CO)NC(=O)[C@H](CO)NC(=O)[C@H](Cc1c[nH]cn1)NC(=O)[C@H](CCCNC(=N)N)NC(=O)[C@H](CC(C)C)NC(=O)[C@H](Cc1ccccc1)NC(=O)[C@H](CC(N)=O)NC(=O)[C@H](C)NC(=O)[C@H](CC(C)C)NC(=O)[C@H](CCCNC(=N)N)NC(=O)[C@H](CCC(N)=O)NC(=O)[C@@H](NC(=O)[C@H](C)NC(=O)[C@@H]1CSSC[C@H](NC(=O)[C@@H](N)CCCCNC(=O)COCCOCCNC(=O)CC[C@H](NC(=O)CCCCCCCCCCCCCCCCCCC(=O)O)C(=O)O)C(=O)N[C@@H](CC(N)=O)C(=O)N[C@@H]([C@@H](C)O)C(=O)N[C@@H](C)C(=O)N[C@@H]([C@@H](C)O)C(=O)N1)[C@@H](C)O)C(=O)N1CCC[C@H]1C(=O)N[C@@H](CO)C(=O)N1CCC[C@H]1C(=O)N[C@H](C(=O)N1CCC[C@H]1C(=O)N[C@H](C(=O)NCC(=O)N[C@@H](CO)C(=O)N[C@@H](CC(N)=O)C(=O)N[C@H](C(=O)N[C@@H](Cc1ccc(O)cc1)C(N)=O)[C@@H](C)O)C(C)C)[C@@H](C)O [Example 54] (H-K([AEEA-γGlu-C20 diacid])CNTATCATQRLANFLRHSSPNFGAIPSPTPVGSNTY-NH2; disulfide 2-7; N-terminus assumed)	146.1	146.1	146.1	146.1	146.1	146.1	146.1	0.049	179.4	179.4	179.4	≥ 200	≥ 200	≥ 200	≥ 200	≥ 200	≥ 200	≥ 200	≥ 200	8.79	IC50 [1]: 0.03 nM
CC[C@H](C)[C@H](NC(=O)[C@H](C)NC(=O)CNC(=O)[C@H](Cc1ccccc1)NC(=O)[C@H](CC(N)=O)NC(=O)[C@@H]1CCCN1C(=O)[C@H](CO)NC(=O)[C@H](CO)NC(=O)[C@H](Cc1c[nH]cn1)NC(=O)[C@H](CCCNC(=N)N)NC(=O)[C@H](CC(C)C)NC(=O)[C@H](Cc1ccccc1)NC(=O)[C@H](CC(N)=O)NC(=O)[C@H](C)NC(=O)[C@H](CC(C)C)NC(=O)[C@H](CCCNC(=N)N)NC(=O)[C@H](CCC(N)=O)NC(=O)[C@@H](NC(=O)[C@H](C)NC(=O)[C@@H]1CSSC[C@H](NC(=O)[C@@H](N)CCCCNC(=O)COCCOCCNC(=O)CC[C@H](NC(=O)CCCCCCCCCCCCCCCCCCC(=O)O)C(=O)O)C(=O)N[C@@H](CC(N)=O)C(=O)N[C@@H]([C@@H](C)O)C(=O)N[C@@H](C)C(=O)N[C@@H]([C@@H](C)O)C(=O)N1)[C@@H](C)O)C(=O)N1CCC[C@H]1C(=O)N1CCC[C@H]1C(=O)N[C@@H](CO)C(=O)N[C@H](C(=O)N[C@@H](CC(N)=O)C(=O)N[C@H](C(=O)NCC(=O)N1CCC[C@H]1C(=O)N[C@@H](CC(N)=O)C(=O)N[C@H](C(=O)N[C@@H](Cc1ccc(O)cc1)C(N)=O)[C@@H](C)O)C(C)C)[C@@H](C)O [Example 55] (H-K([AEEA-γGlu-C20 diacid])CNTATCATQRLANFLRHSSPNFGAIPPSTNVGPNTY-NH2; disulfide 2-7; N-terminus assumed)	51.8	51.8	51.8	51.8	51.8	51.8	51.8	0.081	77.2	77.2	77.2	≥ 200	≥ 200	≥ 200	≥ 200	119 (≈ 541 µg/mL)	≥ 200	≥ 200	≥ 200	6.25	IC50 [1]: 0.042 nM
